Reference: ChEMBL document CHEMBL5512623, “Discovery of the novel and potent histamine H1 receptor antagonists for treatment of allergic diseases” (Eur J Med Chem, 2024)

Legend:
[1] = biological target: Muscarinic acetylcholine receptor M3 (Homo sapiens, UniProt P20309); test: Antagonist activity at human muscarinic M3 receptor expressed in PathHunter U2OS CHRM3 beta-arrestin cells preincubated for 30 mins followed by agonist addition at 6 times EC80 and measured after 90 to 180 mins by PathHunter assay; assay type: functional, cell-based
[2] = biological target: Voltage-gated inwardly rectifying potassium channel KCNH2 (Homo sapiens, UniProt Q12809); test: Inhibition of hERG in HEK293 cells measured after 5 mins by patch-clamp assay
[3] = biological target: Histamine H1 receptor (Homo sapiens, UniProt P35367); test: Antagonist activity at human H1 receptor expressed in PathHunter CHO-K1 HRH1 beta-arrestin cells preincubated for 30 mins followed by agonist addition at 6 times EC80 and measured after 90 to 180 mins by PathHunter assay; assay type: functional, cell-based
Histamine H1 receptor, sequence (P35367 whole entry): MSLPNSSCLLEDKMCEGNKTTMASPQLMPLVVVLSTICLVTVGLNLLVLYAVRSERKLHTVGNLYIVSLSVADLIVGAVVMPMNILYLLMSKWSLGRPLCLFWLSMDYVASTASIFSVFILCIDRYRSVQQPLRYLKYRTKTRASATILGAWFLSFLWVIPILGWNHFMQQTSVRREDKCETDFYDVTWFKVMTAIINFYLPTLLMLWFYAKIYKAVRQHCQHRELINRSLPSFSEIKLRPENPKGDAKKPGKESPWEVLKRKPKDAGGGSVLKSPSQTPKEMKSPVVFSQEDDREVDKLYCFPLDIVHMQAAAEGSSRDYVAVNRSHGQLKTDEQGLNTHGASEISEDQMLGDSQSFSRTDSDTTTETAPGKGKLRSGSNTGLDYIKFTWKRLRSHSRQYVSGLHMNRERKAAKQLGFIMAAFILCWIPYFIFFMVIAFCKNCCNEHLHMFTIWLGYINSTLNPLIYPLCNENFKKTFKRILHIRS

Muscarinic acetylcholine receptor M3, sequence (P20309 whole entry): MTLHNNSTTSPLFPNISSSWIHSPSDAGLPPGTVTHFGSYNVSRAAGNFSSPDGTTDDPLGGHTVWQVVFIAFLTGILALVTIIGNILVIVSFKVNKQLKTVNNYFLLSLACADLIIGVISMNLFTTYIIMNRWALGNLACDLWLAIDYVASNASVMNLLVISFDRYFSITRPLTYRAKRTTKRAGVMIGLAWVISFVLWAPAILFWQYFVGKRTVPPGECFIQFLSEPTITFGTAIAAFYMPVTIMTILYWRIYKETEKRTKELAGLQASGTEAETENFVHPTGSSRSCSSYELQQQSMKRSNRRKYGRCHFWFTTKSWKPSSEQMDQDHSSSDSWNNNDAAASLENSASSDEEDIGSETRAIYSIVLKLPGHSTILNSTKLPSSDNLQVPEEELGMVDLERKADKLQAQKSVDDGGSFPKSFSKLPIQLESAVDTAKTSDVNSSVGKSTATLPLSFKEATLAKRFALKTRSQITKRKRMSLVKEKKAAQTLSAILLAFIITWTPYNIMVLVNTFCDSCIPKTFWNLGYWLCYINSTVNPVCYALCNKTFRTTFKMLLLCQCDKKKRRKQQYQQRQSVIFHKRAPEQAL
Voltage-gated inwardly rectifying potassium channel KCNH2, sequence (Q12809 whole entry): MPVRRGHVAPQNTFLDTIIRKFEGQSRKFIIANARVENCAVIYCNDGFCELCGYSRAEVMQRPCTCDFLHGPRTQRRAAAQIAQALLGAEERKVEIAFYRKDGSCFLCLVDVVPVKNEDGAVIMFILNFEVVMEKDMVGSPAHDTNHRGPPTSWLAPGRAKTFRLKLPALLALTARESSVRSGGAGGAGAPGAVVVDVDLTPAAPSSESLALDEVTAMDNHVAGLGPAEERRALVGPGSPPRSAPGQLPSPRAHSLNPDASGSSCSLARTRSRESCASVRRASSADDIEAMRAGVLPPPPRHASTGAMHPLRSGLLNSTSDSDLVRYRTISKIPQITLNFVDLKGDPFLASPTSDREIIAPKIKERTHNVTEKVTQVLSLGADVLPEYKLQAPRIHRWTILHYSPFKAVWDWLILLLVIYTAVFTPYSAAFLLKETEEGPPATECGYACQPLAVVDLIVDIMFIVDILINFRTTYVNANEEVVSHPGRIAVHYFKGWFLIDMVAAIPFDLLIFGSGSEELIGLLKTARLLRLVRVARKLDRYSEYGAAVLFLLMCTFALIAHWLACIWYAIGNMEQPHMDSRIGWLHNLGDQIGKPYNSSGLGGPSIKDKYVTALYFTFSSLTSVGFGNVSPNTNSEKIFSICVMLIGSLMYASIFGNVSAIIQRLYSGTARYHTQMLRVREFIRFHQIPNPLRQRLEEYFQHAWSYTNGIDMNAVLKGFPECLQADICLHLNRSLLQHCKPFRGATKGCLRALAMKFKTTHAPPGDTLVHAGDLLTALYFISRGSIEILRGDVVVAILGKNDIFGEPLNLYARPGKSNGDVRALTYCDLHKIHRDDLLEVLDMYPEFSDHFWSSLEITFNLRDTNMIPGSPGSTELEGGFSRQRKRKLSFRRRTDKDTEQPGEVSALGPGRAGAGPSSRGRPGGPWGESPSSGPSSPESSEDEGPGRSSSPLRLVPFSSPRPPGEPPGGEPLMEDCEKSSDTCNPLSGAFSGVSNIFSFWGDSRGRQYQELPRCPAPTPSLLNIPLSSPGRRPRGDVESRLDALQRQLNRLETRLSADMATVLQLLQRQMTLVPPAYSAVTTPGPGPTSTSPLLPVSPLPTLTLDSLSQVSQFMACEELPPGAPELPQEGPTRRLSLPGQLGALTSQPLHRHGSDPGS

| SMILES | IC50 [1] | IC50 [2] | IC50 [3] |
| --- | --- | --- | --- |
| O=C(CCO)N1CCC(=C2c3ccc(Cl)cc3CCc3cccnc32)CC1 | > 10 µM | – | – |
| CC(C)(C(=O)O)c1ccc(CCN2CCC(=C3c4ccc(Cl)cc4CCc4cccnc43)CC2)cc1 | > 10 µM | > 30 µM | – |
| CC(C)(C(=O)O)c1cccc(CC(O)CN2CCC(=C3c4ccc(Cl)cc4CCc4cccnc43)CC2)c1 (stereo not drawn) | > 10 µM | – | 0.0572 µM |
| O=C(O)CC(O)CN1CCC(=C2c3ccc(Cl)cc3CCc3cccnc32)CC1 (stereo not drawn) | > 10 µM | > 30 µM | 0.126 µM |
